Results published in patent publication US20060194699A1, “Sprayable non-aqueous, oil-continuous microemulsions and methods of making same” (priority 2003, published 2006).
Where two headings read alike, the source gives them in different places.

Legend:
[1] = Solubility; assay type: physicochemical; settings: 25° C. and pH 4.3
[2] = cited from earlier work
[3] = cited from earlier work; remark: listed apart in the source

Structure (SMILES): CC(C)N.O=C(O)CNCP(=O)(O)O [isopropylamine salt of glyphosate]
- solubility in water as equivalent PMG-acid ([1]; per 1000 g water): 778 grams of equivalent PMG-acid per liter
- weight percent "acid" in the saturated solution ([1]; saturated aqueous solution): 37.95%
- solubility in water ([2]; 25° C. and pH 4.3): 1050 grams of salt in a liter of water

Structure (SMILES): O=C(O)CNCP(=O)(O)O [glyphosate, N-phosphonomethylglycine]
- pKa (first of three printed) [3]: 2.74
- pKa (second of three printed) [3]: 5.63
- pKa (third of three printed) [3]: 10.18
- solubility in water ([2]; 25° C.): 11.6 grams per liter of water
- solubility in common organic solvents ([2]; acetone, alcohol and xylene): insoluble
